# Reference: US5525595A, “3- or 4-glycosyloxybenzopyran derivative and antiallergic agent containing the derivative as active ingredient” (priority 1993, dated 1996)
# Tested on: homologous passive cutaneous anaphylaxis (PCA) reaction
# Assay: Effect on homologous passive cutaneous anaphylaxis (PCA) reaction in rats
# Assay type: in vivo, rats (Male wistar rats)
# Conditions: Rattus norvegicus, 0.5 h; 100 mg/kg oral, 1 hour before antigen, rats; Table 3
# Procedure, shortened: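 Male Wistar rats (9 weeks) sensitized intradermally with anti-TNP-ascaris serum; 48 h later compounds dosed orally at 100 mg/kg in 0.5% CMCNa, n=5 per group. Challenge 1 h post-dose with i.v. TNP-As plus Evans Blue; blue-spot diameter measured at 30 min, inhibition calculated versus vehicle group.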
row,SMILES,inhibition in vivo at 100 mg/kg [%]
1,CCCCCCCCCCCCOc1ccc2c(O[C@@H]3O[C@H](CO)[C@H](O)[C@H](O)[C@H]3O)c(O)c(=O)oc2c1 [compound 96],56.6
2,CC(C)Oc1ccc2c(O[C@@H]3O[C@H](CO)[C@H](O)[C@H](O)[C@H]3O)c(O)c(=O)oc2c1 [compound 97],55.7
3,CCC=CCCOc1ccc2c(O[C@@H]3O[C@H](CO)[C@H](O)[C@H](O)[C@H]3O)c(O)c(=O)oc2c1 [compound 98],60.2
4,CC(C)=CCC/C(C)=C/COc1ccc2c(O[C@@H]3O[C@H](CO)[C@H](O)[C@H](O)[C@H]3O)c(O)c(=O)oc2c1 [compound 99],58.6
5,O=C(Oc1ccc2c(O[C@@H]3O[C@H](CO)[C@H](O)[C@H](O)[C@H]3O)c(O)c(=O)oc2c1)c1ccccc1 [compound 100],42.6
6,COc1ccc2c(O[C@@H]3O[C@H](CO)[C@H](O)[C@H](O)[C@H]3O)c(OC(=O)c3ccccc3)c(=O)oc2c1 [compound 101],45.2
7,CCCCOc1ccc2c(O[C@@H]3O[C@H](CO)[C@H](O)[C@H](O)[C@H]3O)c(OC(C)=O)c(=O)oc2c1 [compound 102],46.3
8,CCCCCCCCCCCCOc1ccc2c(O[C@@H]3O[C@H](CO)[C@H](O)[C@H](O)[C@H]3O)c(OC(C)=O)c(=O)oc2c1 [compound 103],51.1
9,O=c1oc2cc(OCc3ccccc3)ccc2c(O[C@@H]2O[C@H](CO)[C@H](O)[C@H](O)[C@H]2O)c1O [compound 104],44.2
10,CC(=O)Oc1ccc2c(O[C@@H]3O[C@H](CO)[C@H](O)[C@H](O)[C@H]3O)c(O)c(=O)oc2c1 [compound 105],51.4
11,CC(=O)Oc1ccc2c(O[C@H]3O[C@H](CO)[C@@H](O)[C@H](O)[C@@H]3O)c(O)c(=O)oc2c1 [compound 106],42.2
12,CC(=O)Oc1ccc2c(O[C@@H]3O[C@H](CO)[C@@H](O)[C@H](O)[C@H]3O)c(O)c(=O)oc2c1 [compound 116],48
13,CCCCCCOc1ccc2c(O[C@@H]3O[C@H](CO)[C@H](O)[C@H](O)[C@H]3O)c(O)c(=O)oc2c1 [compound 120],64.3
14,CCCCCCOc1ccc2c(O[C@@H]3O[C@H](CO)[C@@H](O)[C@H](O)[C@H]3O)c(O)c(=O)oc2c1 [compound 121],63.7
15,CCCCCCOc1ccc2c(O[C@H]3O[C@H](CO)[C@@H](O)[C@H](O)[C@@H]3O)c(O)c(=O)oc2c1 [compound 122],52.3

# Tested on: not given
# Assay: not given
# Conditions: background statement; cited from earlier work
row,SMILES,gastrointestinal absorbability
1,"O=C(O)c1cc(=O)c2c(OCC(O)COc3cccc4oc(C(=O)O)cc(=O)c34)cccc2o1 [DSCG, reference compound]",extremely poor

# Tested on: airway resistance in experimental asthma model
# Assay: Effect on experimental asthma model in guinea pigs
# Assay type: in vivo, guinea pigs (Male hadley)
# Conditions: Cavia porcellus, iv; positive control DSCG 20 mg/kg injected into the vein; Table 7
# Procedure, shortened: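 Male Hartley guinea pigs sensitized i.p. with 5 mg ovalbumin three times weekly, challenged 2 weeks later by 1 min inhalation of 1% OVA. Compounds dosed orally at 100 mg/kg in 0.5% CMCNa; airway resistance recorded 30 min, inhibition % from maximum resistance versus vehicle (n=5).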
row,SMILES,inhibition in vivo at 20 mg/kg [%]
1,"O=C(O)c1cc(=O)c2c(OCC(O)COc3cccc4oc(C(=O)O)cc(=O)c34)cccc2o1 [DSCG, reference compound]",50.5

# Same assay, conditions: Cavia porcellus; 100 mg/kg oral, OVA challenge, guinea pigs; Table 7
row,SMILES,inhibition in vivo at 100 mg/kg [%]
1,CCCCCCCCCCCCOc1ccc2c(O[C@@H]3O[C@H](CO)[C@H](O)[C@H](O)[C@H]3O)c(O)c(=O)oc2c1 [compound 96],73.1
2,CC(C)Oc1ccc2c(O[C@@H]3O[C@H](CO)[C@H](O)[C@H](O)[C@H]3O)c(O)c(=O)oc2c1 [compound 97],63.2
3,CCC=CCCOc1ccc2c(O[C@@H]3O[C@H](CO)[C@H](O)[C@H](O)[C@H]3O)c(O)c(=O)oc2c1 [compound 98],72.8
4,CC(C)=CCC/C(C)=C/COc1ccc2c(O[C@@H]3O[C@H](CO)[C@H](O)[C@H](O)[C@H]3O)c(O)c(=O)oc2c1 [compound 99],77.7
5,O=C(Oc1ccc2c(O[C@@H]3O[C@H](CO)[C@H](O)[C@H](O)[C@H]3O)c(O)c(=O)oc2c1)c1ccccc1 [compound 100],67.8
6,COc1ccc2c(O[C@@H]3O[C@H](CO)[C@H](O)[C@H](O)[C@H]3O)c(OC(=O)c3ccccc3)c(=O)oc2c1 [compound 101],56.2
7,CCCCOc1ccc2c(O[C@@H]3O[C@H](CO)[C@H](O)[C@H](O)[C@H]3O)c(OC(C)=O)c(=O)oc2c1 [compound 102],50.3
8,CCCCCCCCCCCCOc1ccc2c(O[C@@H]3O[C@H](CO)[C@H](O)[C@H](O)[C@H]3O)c(OC(C)=O)c(=O)oc2c1 [compound 103],65.3
9,O=c1oc2cc(OCc3ccccc3)ccc2c(O[C@@H]2O[C@H](CO)[C@H](O)[C@H](O)[C@H]2O)c1O [compound 104],63.3
10,CC(=O)Oc1ccc2c(O[C@@H]3O[C@H](CO)[C@H](O)[C@H](O)[C@H]3O)c(O)c(=O)oc2c1 [compound 105],58.8
11,CC(=O)Oc1ccc2c(O[C@H]3O[C@H](CO)[C@@H](O)[C@H](O)[C@@H]3O)c(O)c(=O)oc2c1 [compound 106],46.2
12,CC(=O)Oc1ccc2c(O[C@@H]3O[C@H](CO)[C@@H](O)[C@H](O)[C@H]3O)c(O)c(=O)oc2c1 [compound 116],55.3
13,CCCCCCOc1ccc2c(O[C@@H]3O[C@H](CO)[C@H](O)[C@H](O)[C@H]3O)c(O)c(=O)oc2c1 [compound 120],78.9
14,CCCCCCOc1ccc2c(O[C@@H]3O[C@H](CO)[C@@H](O)[C@H](O)[C@H]3O)c(O)c(=O)oc2c1 [compound 121],75.1
15,CCCCCCOc1ccc2c(O[C@H]3O[C@H](CO)[C@@H](O)[C@H](O)[C@@H]3O)c(O)c(=O)oc2c1 [compound 122],62.1

# Tested on: contact dermatitis induced by picryl chloride
# Assay: Effect on contact dermatitis induced by picryl chloride in mice (delayed type hypersensitization)
# Assay type: in vivo
# Conditions: Mus musculus; 100 mg/kg oral, ear thickness 24 hours after challenge; Table 6; read-out: Inhibition (%) against the increase of ear thickness
# Procedure, shortened: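 Mice sensitized on abdomen with 7 mg picryl chloride, ear-challenged 7 days later with 1% picryl chloride; compounds dosed orally at 100 mg/kg in 0.5% CMCNa 1 h before and 16 h after challenge.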
row,SMILES,inhibition in vivo at 100 mg/kg [%]
1,CCCCCCCCCCCCOc1ccc2c(O[C@@H]3O[C@H](CO)[C@H](O)[C@H](O)[C@H]3O)c(O)c(=O)oc2c1 [compound 96],57.8
2,CC(C)Oc1ccc2c(O[C@@H]3O[C@H](CO)[C@H](O)[C@H](O)[C@H]3O)c(O)c(=O)oc2c1 [compound 97],58.7
3,CCC=CCCOc1ccc2c(O[C@@H]3O[C@H](CO)[C@H](O)[C@H](O)[C@H]3O)c(O)c(=O)oc2c1 [compound 98],61.2
4,CC(C)=CCC/C(C)=C/COc1ccc2c(O[C@@H]3O[C@H](CO)[C@H](O)[C@H](O)[C@H]3O)c(O)c(=O)oc2c1 [compound 99],59.4
5,O=C(Oc1ccc2c(O[C@@H]3O[C@H](CO)[C@H](O)[C@H](O)[C@H]3O)c(O)c(=O)oc2c1)c1ccccc1 [compound 100],44.9
6,COc1ccc2c(O[C@@H]3O[C@H](CO)[C@H](O)[C@H](O)[C@H]3O)c(OC(=O)c3ccccc3)c(=O)oc2c1 [compound 101],47.2
7,CCCCOc1ccc2c(O[C@@H]3O[C@H](CO)[C@H](O)[C@H](O)[C@H]3O)c(OC(C)=O)c(=O)oc2c1 [compound 102],46.3
8,CCCCCCCCCCCCOc1ccc2c(O[C@@H]3O[C@H](CO)[C@H](O)[C@H](O)[C@H]3O)c(OC(C)=O)c(=O)oc2c1 [compound 103],48.3
9,O=c1oc2cc(OCc3ccccc3)ccc2c(O[C@@H]2O[C@H](CO)[C@H](O)[C@H](O)[C@H]2O)c1O [compound 104],46.1
10,CC(=O)Oc1ccc2c(O[C@@H]3O[C@H](CO)[C@H](O)[C@H](O)[C@H]3O)c(O)c(=O)oc2c1 [compound 105],47.8
11,CC(=O)Oc1ccc2c(O[C@H]3O[C@H](CO)[C@@H](O)[C@H](O)[C@@H]3O)c(O)c(=O)oc2c1 [compound 106],40.1
12,CC(=O)Oc1ccc2c(O[C@@H]3O[C@H](CO)[C@@H](O)[C@H](O)[C@H]3O)c(O)c(=O)oc2c1 [compound 116],45.1
13,CCCCCCOc1ccc2c(O[C@@H]3O[C@H](CO)[C@H](O)[C@H](O)[C@H]3O)c(O)c(=O)oc2c1 [compound 120],65.2
14,CCCCCCOc1ccc2c(O[C@@H]3O[C@H](CO)[C@@H](O)[C@H](O)[C@H]3O)c(O)c(=O)oc2c1 [compound 121],63.7
15,CCCCCCOc1ccc2c(O[C@H]3O[C@H](CO)[C@@H](O)[C@H](O)[C@@H]3O)c(O)c(=O)oc2c1 [compound 122],53.2
